Results as given in patent US11236078B2, “Heterocyclic inhibitors of the sodium channel” (priority 2014, dated 2022).

What was measured:
Assay type in all cases: cell-based
human Nav1.5 (hNav1.5) [1] = target: T1, human Nav1.5 (hNav1.5) (Homo sapiens, UniProt Q14524); experiment: hNav1.5 slow inactivation block, manual patchclamp; conditions: HEK 293F cells stably expressing hNav1.5
T1 construct: expressed in transfected cells
From the text: The generation of HEK 293F cell lines stably expressing human Nav1.7 (h Nav1.7), human Nav1.5 (hNav1.5) and rat Nav1.2 (r Nav1.2) was achieved by subcloning SCN9A, SCN5A, and SCN2A genes into inducible expression vectors followed by transfection into target cells using standard techniques. In the case of h Nav1.7, an expression vector encoding the human Navβ1 auxiliary subunit gene, SCN1B, was co-transfected with the expression vector bearing the SCN9A gene. Clones were selected using appropriate selection agents (0.3 mg/mL Zeocin and 0.8 mg/mL Geneticin) and maintained in Dulbecco's Modified Eagle medium, 10% fetal bovine serum, 1% non-essential amino acids to ˜80% confluence at 37° C. in a humidified incubator with 95% atmosphere and 5% CO2. […]
(§1) On the day of each experiment, cells that were grown to 80% confluence in a T75 flask were harvested for use on PatchXpress (Molecular Devices, CA, USA). Following a recovery period at 37° C. in a humidified incubator with 95% atmosphere and 5% CO2 in Dulbecco's Modified Eagle Medium, the media was replaced with an external recording solution containing (in mM): 90 TEACl, 50 NaCl, 1.8 CaCl2, 1 MgCl2, 10 HEPES, 10 glucose, adjusted to pH 7.4 with TEAOH and 300 mOsm with sucrose. The internal recording solution contained (in mM): 129 CsF, 2 MgCl2, 11 EGTA, 10 HEPES, 6 NaCl, 3 Na2ATP adjusted to pH 7.2 with CsOH and 280 mOsm with sucrose. The automated liquid handling facility of PatchXpress dispensed cells and added compound. Modulation of Nav1.7 channels by compounds was assessed by promoting the channels into the inactivated state using a conditioning voltage pulse of variable amplitude, followed by a brief hyperpolarizing pulse with a subsequent depolarized voltage step to measure the current amplitude in the presence and absence of compound.
(§2) In some cases, the potency of compounds was measured using either the Patchliner automated patch clamp platform (Nanion) or manual patch clamp techniques. Both approaches allowed the compounds to be characterized based upon the ability of a compound to modulate use- and/or state-dependence across human Nav1.7 (hNav1.7), human Nav1.5 (hNav1.5) and rat Nav1.2 (rNav1.2). The potency data is tabulated in Table 2 and is represented by six data fields. Three of the six fields represent potency data measured with the Patchliner automated platform under varying use- and state-dependent electrophysiology protocols similar to the PatchXpress protocols detailed above. For example, the second data column describes the potency of compounds in their ability to block 50% of Nav1.7 channels when the channel is repetitively activated by depolarizing voltage potentials to induce slow inactivation in approximately 50% of channels (Table 2: h Nav1.7: IC50 Slow Inactivation Block, Automated Patchclamp). The next three data fields describe the data generated from manual patchclamp electrophysiology measurements using similar methods to those employed for automated patchclamp studies.

rat Nav1.2 (rNav1.2) [2] = target: T2, rat Nav1.2 (rNav1.2) (Rattus norvegicus, UniProt P04775); experiment: rNav1.2 slow inactivation block, manual patchclamp; conditions: HEK 293F cells stably expressing rNav1.2
T2 construct: expressed in transfected cells
From the text: (§3) The generation of HEK 293F cell lines stably expressing human Nav1.7 (h Nav1.7), human Nav1.5 (hNav1.5) and rat Nav1.2 (r Nav1.2) was achieved by subcloning SCN9A, SCN5A, and SCN2A genes into inducible expression vectors followed by transfection into target cells using standard techniques. In the case of h Nav1.7, an expression vector encoding the human Navβ1 auxiliary subunit gene, SCN1B, was co-transfected with the expression vector bearing the SCN9A gene. Clones were selected using appropriate selection agents (0.3 mg/mL Zeocin and 0.8 mg/mL Geneticin) and maintained in Dulbecco's Modified Eagle medium, 10% fetal bovine serum, 1% non-essential amino acids to ˜80% confluence at 37° C. in a humidified incubator with 95% atmosphere and 5% CO2.
as §1, §2

rat Nav1.2 (rNav1.2) [3] = target: T2, rat Nav1.2 (rNav1.2); experiment: rNav1.2 slow inactivation block, automated patchclamp; conditions: HEK 293F cells stably expressing rNav1.2
From the text: as §3, §1, §2

human Nav1.7 (hNav1.7) [4] = target: T3, human Nav1.7 (hNav1.7) (Homo sapiens, UniProt Q15858); experiment: hNav1.7 slow inactivation block, manual patchclamp; conditions: HEK 293F cells stably expressing hNav1.7, slow inactivation induced in approximately 50% of channels
T3 construct: expressed in transfected cells
From the text: as §3, §1, §2

human Nav1.7 (hNav1.7) [5] = target: T3, human Nav1.7 (hNav1.7); experiment: hNav1.7 slow inactivation block, automated patchclamp; conditions: HEK 293F cells stably expressing hNav1.7, slow inactivation induced in approximately 50% of channels
From the text: as §3, §1, §2

human Nav1.5 (hNav1.5) [6] = target: T1, human Nav1.5 (hNav1.5); experiment: hNav1.5 slow inactivation block, automated patchclamp; conditions: HEK 293F cells stably expressing hNav1.5
From the text: as §3
Inhibition of the TTX-resistant Nav1.5 sodium channel, a key cardiac ion channel, can have profound effects on the duration and amplitude of the cardiac action potential and can result in arrhythmias and other heart malfunctions. To assess the potential cardiac liability of compounds at an early stage in the drug discovery process, a Nav1.5 sodium channel screening assay can be performed on Molecular Device's PatchXpress™ automated electrophysiology platform. Under voltage-clamp conditions, Nav1.5 currents can be recorded from HEK cells expressing the human Nav1.5 channel in the absence and presence of increasing concentrations of the test compound to obtain an IC50 value. The external recording solution can contain (in mM): 90 TEACl, 50 NaCl, 1.8 CaCl, 1 MgCl2, 10 HEPES, 10 glucose, adjusted to pH 7.4 with TEA-OH and to 300 mOsm with sucrose (if necessary), while the internal patch pipette solution contained (in mM): 129 CsF, 2 MgCl2, 11 EGTA, 10 HEPES, 3 Na2ATP adjusted to pH 7.2 with CsOH and to 290 mOsm with sucrose (if necessary). Nav1.5 channel currents can be evoked using a cardiac action potential waveform at 1 Hz, digitized at 31.25 kHz and low-pass filtered at 12 kHz.
as §1
In some cases, the potency of compounds was measured using either the Patchliner automated patch clamp platform (Nanion) or manual patch clamp techniques. Both approaches allowed the compounds to be characterized based upon the ability of a compound to modulate use- and/or state-dependence across human Nav1.7 (hNav1.7), human Nav1.5 (hNav1.5) and rat Nav1.2 (rNav1.2). The potency data is tabulated in Table 2 and is represented by six data fields. Three of the six fields represent potency data measured with the Patchliner automated platform under varying use- and state-dependent electrophysiology protocols similar to the PatchXpress protocols detailed above. […]

T3 sequence (Q15858 whole entry): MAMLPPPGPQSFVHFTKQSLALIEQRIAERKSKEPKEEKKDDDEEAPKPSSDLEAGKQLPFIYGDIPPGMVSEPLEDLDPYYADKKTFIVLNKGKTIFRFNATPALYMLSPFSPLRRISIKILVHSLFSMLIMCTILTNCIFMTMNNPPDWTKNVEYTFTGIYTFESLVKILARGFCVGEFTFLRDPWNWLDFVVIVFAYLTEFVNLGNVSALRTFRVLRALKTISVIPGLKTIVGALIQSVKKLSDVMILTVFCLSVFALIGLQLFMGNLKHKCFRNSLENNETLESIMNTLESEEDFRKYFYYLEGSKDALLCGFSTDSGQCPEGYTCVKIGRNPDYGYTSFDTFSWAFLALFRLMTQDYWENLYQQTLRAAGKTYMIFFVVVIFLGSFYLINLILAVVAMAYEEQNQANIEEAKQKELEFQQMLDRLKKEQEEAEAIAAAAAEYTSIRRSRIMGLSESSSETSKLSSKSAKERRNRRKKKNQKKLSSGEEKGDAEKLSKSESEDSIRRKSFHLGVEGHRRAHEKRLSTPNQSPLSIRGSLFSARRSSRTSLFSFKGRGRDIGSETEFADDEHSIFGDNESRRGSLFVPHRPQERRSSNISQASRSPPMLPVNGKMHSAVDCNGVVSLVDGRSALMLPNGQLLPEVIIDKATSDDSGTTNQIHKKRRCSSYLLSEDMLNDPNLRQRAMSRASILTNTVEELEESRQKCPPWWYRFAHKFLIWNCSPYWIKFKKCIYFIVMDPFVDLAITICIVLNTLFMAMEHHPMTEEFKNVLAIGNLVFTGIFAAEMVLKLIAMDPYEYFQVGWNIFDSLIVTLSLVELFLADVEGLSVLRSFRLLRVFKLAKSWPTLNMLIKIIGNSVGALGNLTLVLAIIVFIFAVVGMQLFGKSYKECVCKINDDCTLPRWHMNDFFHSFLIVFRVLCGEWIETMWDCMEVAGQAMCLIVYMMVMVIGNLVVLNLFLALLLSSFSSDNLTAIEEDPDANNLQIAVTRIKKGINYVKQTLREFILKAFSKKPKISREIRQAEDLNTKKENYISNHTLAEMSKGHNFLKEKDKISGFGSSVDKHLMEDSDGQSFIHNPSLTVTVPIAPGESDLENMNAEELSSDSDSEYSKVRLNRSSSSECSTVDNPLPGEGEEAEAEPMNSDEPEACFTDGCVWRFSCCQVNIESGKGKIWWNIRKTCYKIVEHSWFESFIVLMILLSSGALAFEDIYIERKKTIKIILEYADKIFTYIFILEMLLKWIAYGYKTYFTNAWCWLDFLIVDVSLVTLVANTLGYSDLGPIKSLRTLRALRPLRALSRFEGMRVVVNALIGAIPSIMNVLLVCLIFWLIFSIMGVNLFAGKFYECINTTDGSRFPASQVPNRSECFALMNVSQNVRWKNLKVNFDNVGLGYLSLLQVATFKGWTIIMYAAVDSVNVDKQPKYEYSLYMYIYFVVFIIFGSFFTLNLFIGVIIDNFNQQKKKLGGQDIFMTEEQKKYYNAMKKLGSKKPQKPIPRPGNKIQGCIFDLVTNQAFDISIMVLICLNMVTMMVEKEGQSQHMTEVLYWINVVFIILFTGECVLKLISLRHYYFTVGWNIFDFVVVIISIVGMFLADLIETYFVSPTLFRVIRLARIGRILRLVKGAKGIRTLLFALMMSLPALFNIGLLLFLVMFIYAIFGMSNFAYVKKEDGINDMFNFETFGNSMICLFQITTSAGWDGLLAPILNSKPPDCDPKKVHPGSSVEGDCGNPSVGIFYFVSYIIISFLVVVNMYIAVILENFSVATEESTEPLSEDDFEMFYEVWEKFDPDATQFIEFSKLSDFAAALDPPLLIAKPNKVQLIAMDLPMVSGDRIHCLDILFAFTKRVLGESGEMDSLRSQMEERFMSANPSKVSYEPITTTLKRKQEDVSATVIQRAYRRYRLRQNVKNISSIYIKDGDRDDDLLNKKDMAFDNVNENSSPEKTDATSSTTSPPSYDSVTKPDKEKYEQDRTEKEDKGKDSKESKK
T3 sequence (Q07699 19-218 partner): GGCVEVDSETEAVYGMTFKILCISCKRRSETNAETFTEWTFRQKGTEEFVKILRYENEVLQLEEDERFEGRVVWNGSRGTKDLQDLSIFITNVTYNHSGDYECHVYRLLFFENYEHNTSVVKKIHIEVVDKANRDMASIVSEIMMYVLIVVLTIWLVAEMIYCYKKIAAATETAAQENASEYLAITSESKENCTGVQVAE
T2 sequence (P04775 whole entry): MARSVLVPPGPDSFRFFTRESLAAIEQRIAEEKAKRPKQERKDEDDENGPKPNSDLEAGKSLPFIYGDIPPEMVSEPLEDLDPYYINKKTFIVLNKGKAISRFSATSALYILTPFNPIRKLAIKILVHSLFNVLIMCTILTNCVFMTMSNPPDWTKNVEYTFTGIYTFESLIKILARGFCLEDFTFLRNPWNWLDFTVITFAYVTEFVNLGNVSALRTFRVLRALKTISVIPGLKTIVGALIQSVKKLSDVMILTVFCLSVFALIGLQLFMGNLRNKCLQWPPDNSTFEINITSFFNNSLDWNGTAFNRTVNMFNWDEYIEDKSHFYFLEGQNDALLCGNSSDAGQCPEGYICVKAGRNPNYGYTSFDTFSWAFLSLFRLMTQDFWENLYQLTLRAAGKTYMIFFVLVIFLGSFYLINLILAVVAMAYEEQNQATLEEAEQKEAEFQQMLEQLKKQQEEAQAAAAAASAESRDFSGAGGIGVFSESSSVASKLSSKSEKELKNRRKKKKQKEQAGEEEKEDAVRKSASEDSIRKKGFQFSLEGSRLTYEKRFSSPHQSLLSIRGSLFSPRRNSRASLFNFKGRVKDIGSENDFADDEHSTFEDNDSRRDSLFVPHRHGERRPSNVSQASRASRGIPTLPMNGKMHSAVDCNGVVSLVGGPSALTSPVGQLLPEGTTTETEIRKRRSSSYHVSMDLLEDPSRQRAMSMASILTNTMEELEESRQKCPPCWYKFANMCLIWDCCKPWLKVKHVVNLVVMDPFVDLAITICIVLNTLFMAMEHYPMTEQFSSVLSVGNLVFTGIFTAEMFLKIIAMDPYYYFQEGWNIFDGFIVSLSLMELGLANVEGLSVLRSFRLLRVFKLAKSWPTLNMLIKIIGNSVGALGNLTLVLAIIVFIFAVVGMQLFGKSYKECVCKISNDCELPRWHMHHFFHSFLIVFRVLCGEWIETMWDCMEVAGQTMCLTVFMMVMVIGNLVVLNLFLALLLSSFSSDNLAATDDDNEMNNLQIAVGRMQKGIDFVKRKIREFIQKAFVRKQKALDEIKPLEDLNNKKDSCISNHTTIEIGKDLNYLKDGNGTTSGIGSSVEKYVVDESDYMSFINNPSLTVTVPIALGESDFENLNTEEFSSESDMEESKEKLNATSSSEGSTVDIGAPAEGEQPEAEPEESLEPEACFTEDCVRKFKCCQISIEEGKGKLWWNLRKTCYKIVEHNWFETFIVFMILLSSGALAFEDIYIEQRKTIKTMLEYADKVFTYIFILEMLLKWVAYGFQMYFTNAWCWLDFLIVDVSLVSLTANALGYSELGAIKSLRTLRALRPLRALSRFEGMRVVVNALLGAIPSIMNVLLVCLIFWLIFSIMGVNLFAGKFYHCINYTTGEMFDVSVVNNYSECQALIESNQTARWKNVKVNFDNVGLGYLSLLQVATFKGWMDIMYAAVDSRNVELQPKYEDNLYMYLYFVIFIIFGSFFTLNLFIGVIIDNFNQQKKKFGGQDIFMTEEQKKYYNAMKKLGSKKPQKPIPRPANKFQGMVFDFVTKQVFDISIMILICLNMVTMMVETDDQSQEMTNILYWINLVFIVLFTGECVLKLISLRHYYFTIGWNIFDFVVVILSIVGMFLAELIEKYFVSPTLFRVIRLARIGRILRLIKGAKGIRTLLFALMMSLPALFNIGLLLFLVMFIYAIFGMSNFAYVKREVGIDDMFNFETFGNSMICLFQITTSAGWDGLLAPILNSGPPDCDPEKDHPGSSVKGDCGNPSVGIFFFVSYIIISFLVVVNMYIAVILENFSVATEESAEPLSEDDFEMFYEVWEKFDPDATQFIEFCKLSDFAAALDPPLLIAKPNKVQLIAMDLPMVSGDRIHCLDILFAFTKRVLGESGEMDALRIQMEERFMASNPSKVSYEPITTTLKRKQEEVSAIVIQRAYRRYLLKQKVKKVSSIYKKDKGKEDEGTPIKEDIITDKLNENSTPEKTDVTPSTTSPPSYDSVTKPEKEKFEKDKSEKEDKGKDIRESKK

Row | Compound | IC50 (rat Nav1.2 (rNav1.2) [2]) | IC50 (rat Nav1.2 (rNav1.2) [3]) | IC50 (human Nav1.7 (hNav1.7) [4]) | IC50 (human Nav1.7 (hNav1.7) [5]) | IC50 (human Nav1.5 (hNav1.5) [1]) | IC50 (human Nav1.5 (hNav1.5) [6])
1 | O=C(NCc1cc(F)c(Oc2cc(C(F)(F)F)cc(C(F)(F)F)c2)cc1F)c1ncns1 [Compound 17, N-({4-[3,5-bis(trifluoromethyl)phenoxy]-2,5-difluorophenyl}methyl)-1,2,4-thiadiazole-5-carboxamide] | 479 nM | 18700 nM | 470 nM | 8430 nM | ~2500 nM | –
2 | COc1cc(Oc2cc(F)c(S(=O)(=O)Nc3nc(CN4CCOCC4)ns3)cc2F)cc(C(F)(F)F)c1 [Compound 45, 2,5-difluoro-4-[3-methoxy-5-(trifluoromethyl)phenoxy]-N-[3-(morpholin-4-ylmethyl)-1,2,4-thiadiazol-5-yl]benzene-1-sulfonamide] | – | – | > 10000 nM | > 32000 nM | – | > 32000 nM
3 | CN(c1ncns1)S(=O)(=O)c1cc(F)c(Oc2cc(Br)cc(C(F)(F)F)c2)cc1F [Compound 2, 4-(3-bromo-5-(trifluoromethyl)phenoxy)-2,5-difluoro-N-methyl-N-(1,2,4-thiadiazol-5-yl)benzenesulfonamide] | – | – | 484 nM | – | > 3200 nM | –
4 | COc1cc(Oc2cc(F)c(S(=O)(=O)Nc3ncns3)cc2F)cc(C(F)(F)F)c1 [Compound 34, 2,5-difluoro-4-[3-methoxy-5-(trifluoromethyl)phenoxy]-N-(1,2,4-thiadiazol-5-yl)benzene-1-sulfonamide] | ~2740 nM | – | 186 nM | ~6250 nM | 1600 nM | –
5 | O=S(=O)(Nc1ncns1)c1cc(F)c(Oc2cc(F)cc(Cl)c2)cc1F [Compound 29, 4-(3-chloro-5-fluorophenoxy)-2,5-difluoro-N-(1,2,4-thiadiazol-5-yl)benzene-1-sulfonamide] | > 32000 nM | > 32000 nM | 678 nM | 14600 nM | ~7570 nM | –
6 | COc1cc(Oc2cc(F)c(S(=O)(=O)Nc3nc(Cc4ccccc4)ns3)cc2F)cc(C(F)(F)F)c1 [Compound 41, N-(3-benzyl-1,2,4-thiadiazol-5-yl)-2,5-difluoro-4-[3-methoxy-5-(trifluoromethyl)phenoxy]benzene-1-sulfonamide] | – | – | > 3200 nM | > 32000 nM | – | > 32000 nM
7 | O=C(NCc1cc(F)c(Oc2cc(C(F)(F)F)cc(C(F)(F)F)c2)cc1F)[C@@H]1CCCN1 [Compound 4, (2S)-N-({4-[3,5-bis(trifluoromethyl)phenoxy]-2,5-difluorophenyl}methyl)pyrrolidine-2-carboxamide] | 146 nM | 1870 nM | 217 nM | 977 nM | 116 nM | –

The remaining molecules from weak to strong by IC50 (human Nav1.7 (hNav1.7) [4]), led by results:

Row | IC50 (rat Nav1.2 (rNav1.2) [2]) | IC50 (rat Nav1.2 (rNav1.2) [3]) | IC50 (human Nav1.7 (hNav1.7) [4]) | IC50 (human Nav1.7 (hNav1.7) [5]) | Compound | IC50 (human Nav1.5 (hNav1.5) [1]) | IC50 (human Nav1.5 (hNav1.5) [6])
8 | – | – | 1600 nM | ~17100 nM | CN(C)C(=O)c1cc(Oc2cc(F)c(S(=O)(=O)Nc3ncns3)cc2F)cc(C(F)(F)F)c1 [Compound 38, 3-{2,5-difluoro-4-[(1,2,4-thiadiazol-5-yl)sulfamoyl]phenoxy}-N,N-dimethyl-5-(trifluoromethyl)benzamide] | > 32000 nM | –
9 | > 10000 nM | – | ~413 nM | ~17600 nM | CCCOc1cc(Oc2cc(F)c(S(=O)(=O)Nc3ncns3)cc2F)cc(C(F)(F)F)c1 [Compound 37, 2,5-difluoro-4-[3-propoxy-5-(trifluoromethyl)phenoxy]-N-(1,2,4-thiadiazol-5-yl)benzene-1-sulfonamide] | 7210 nM | –
10 | 19400 nM | – | 393 nM | 7250 nM | O=S(=O)(Nc1ncns1)c1cc(F)c(Oc2cc(C(F)(F)F)cc(C(F)(F)F)c2)cc1F [Compound 5, 4-[3,5-bis(trifluoromethyl)phenoxy]-2,5-difluoro-N-(1,2,4-thiadiazol-5-yl)benzene-1-sulfonamide] | 16600 nM | –
11 | ~389 nM | – | ~383 nM | – | O=C(Cc1cccc(-c2cc(C(F)(F)F)cc(C(F)(F)F)c2)c1)Nc1ncns1 [Compound 21, 2-{3-[3,5-bis(trifluoromethyl)phenyl]phenyl}-N-(1,2,4-thiadiazol-5-yl)acetamide] | 550 nM | –
12 | – | – | 294 nM | – | O=C(NCc1cc(F)c(Oc2cc(Br)cc(C(F)(F)F)c2)cc1F)c1ncns1 [Compound 1, N-(4-(3-bromo-5-(trifluoromethyl)phenoxy)-2,5-difluorobenzyl)-1,2,4-thiadiazole-5-carboxamide] | < 1000 nM | –
13 | 387 nM | ~1220 nM | 286 nM | 750 nM | O=S(=O)(Nc1ncns1)c1cc(F)c(Oc2cc(C3CNC3)cc(C(F)(F)F)c2)cc1F [Compound 31, 4-(3-(azetidin-3-yl)-5-(trifluoromethyl)phenoxy)-2,5-difluoro-N-(1,2,4-thiadiazol-5-yl)benzenesulfonamide] | ~1460 nM | –
14 | > 10000 nM | – | 256 nM | ~11900 nM | O=S(=O)(Nc1ncns1)c1cc(F)c(Oc2cc(Cl)cc(C(F)(F)F)c2)cc1F [Compound 36, 4-[3-chloro-5-(trifluoromethyl)phenoxy]-2,5-difluoro-N-(1,2,4-thiadiazol-5-yl)benzene-1-sulfonamide] | ~4960 nM | –
15 | 219 nM | 5850 nM | 173 nM | 712 nM | O=C(NCc1cccc(-c2cc(C(F)(F)F)cc(C(F)(F)F)c2)c1)C1CCCC1 [Compound 56, N-({3-[3,5-bis(trifluoromethyl)phenyl]phenyl}methyl)cyclopentanecarboxamide] | 462 nM | –
16 | ~4910 nM | – | 118 nM | ~10000 nM | O=S(=O)(Nc1ncns1)c1cc(F)c(Oc2cc(Br)cc(C(F)(F)F)c2)cc1F [Compound 33, 4-[3-bromo-5-(trifluoromethyl)phenoxy]-2,5-difluoro-N-(1,2,4-thiadiazol-5-yl)benzene-1-sulfonamide] | ~4010 nM | –
